Source: US20120322153A1, “REPROGRAMMING A CELL BY ACTIVATION OF THE ENDOGENOUS TRANSCRIPTION FACTOR NETWORK” (NUPOTENTIAL, INC., priority 2009, published 2012)
Read-outs that look alike come from different tables or passages of the source.

Assays:
HDAC = conditions: order of magnitude of affinity for HDAC; cited from earlier work
[1] = system: Mouse embryonic fibroblasts; conditions: Recombinant protein, cited from earlier work
[2] = used as antiepileptic drug during pregnancy; a few percent of born children; cited from earlier work
BJFs (ATCC) = test: HDAC and DNMT1 gene expression in BJFs treated with VPA; assay type: cell-based
Experimental: FIG. 4C is a bar graph reporting HDAC and DNMT1 gene expression in BJFs (ATCC) treated with […] Valproic acid (VPA) for 7 days.
Expression levels for shRNA-targeted genes and pluripotency transcription factor were quantified by real-time RT-PCR. Briefly, total RNA was prepared from cultures using Trizol Reagent (Life Technology) and the RNeasy Mini RNA isolation kit (Qiagen) with DNase I digestion according to manufacturer's protocol. Total RNA (1 μg) from each sample was subjected to oligo(dT)-primed reverse transcription (Invitrogen) to cDNA. Real-time PCR reactions were performed with PCR master mix on a 7300 real-time PCR system (Applied Biosystems). For each sample, 1 μl of diluted cDNA (1:10) was added as template in the PCR reactions. Expression levels were compared to those in untreated and non-targeting shRNA control cells relative to cyclophillin.

[3] = system: Human adipose tissue derived adult stem cells; test: ES cell-like colony formation of hADS cells pre-treated with HDAC inhibitor, then OSKM lentivirus; assay type: cell-based
Experimental: Human adipose tissue derived adult stem cells were maintained at 37° C. in 95% humidity and 5% CO2 in Dulbecco's modified eagle medium (DMEM, Cell Application) containing 10% fetal bovine serum, 0.5% penicillin and streptomycin. Cells were grown, trypsinized and counted, then diluted in the above standard growth medium to achieve appropriate plating density (1×10^5 cells/well in 6 well plate, Corning) prior to HDAC inhibitor treatment.
Pre-treatment. […] The cell culture medium was changed every other day with new treatment.
Lentivirus infection. Lentivirus that over-expresses mouse Oct-4, Sox2, c-Myc, and Klf4 was purchased from Millipore, (Billerica, Mass.). One day before lentivirus infection, human adipose tissue-derived cells with or without HDAC inhibitor pretreatment were trypsinized and plated at a density of 1×10^5 cells/well in a 6 well plate (Corning) using standard growth medium described above. The following day, the medium was replaced with 1 ml of fresh medium containing 0.6 ug/ml of polybrene (Sigma-Aldrich, St. Louis, Mo.), and thawed lentivirus (MOI 75) was added directly to the wells following the manufacturer's instruction. Cells were maintained at 37° C. in 95% humidity and 5% CO2 incubator overnight. On the next day, lentiviral infection was repeated after cells were washed 3 times with 1×PBS. Lentivirus infected cells were maintained in the standard growth medium for 4˜5 days and trypsinized, and plated on irradiated MEF feeder layers (ATCC, Manassas, Va.) with mTeSR medium (Stem Cell Technology).

Human fibroblasts = conditions: Retroviral infection, cited from earlier work
mouse embryos = conditions: mice, when properly dosed; cited from earlier work
[4] = system: Human adipose tissue derived adult stem cells; test: Immunohistochemistry for Sox-2 and Oct4 in ES cell-like colonies from hADS cells; assay type: cell-based; conditions: pre-treatment with TSA
Experimental: Cells were fixed with fixative (Ethanol:acetic acid:H2O=7:2:1) for 10 minutes. After rinse 3 times with 10% FBS in 1×PBS for 5 min each and cells were incubated I hrs with primary antibodies for Oct4 (1:200 dilution, Abeam), or Sox2 (1:200 dilution, Abeam) in 10% FBS containing 0.2% saponin (Sigma) and following alexaFluor-conjugated secondary antibody (1:200 dilution, Invitrogen).

[5] = 5 days pre-treatment, 9 days after OSKM viral infection
[6] = 5 days pre-treatment, 11 days after OSKM viral infection

Compound	Affinity Range (HDAC)	further results
CC(=O)Nc1ccc(C(=O)Nc2ccccc2N)cc1 [CI-994(N-acetyl dinaline), N-acetyl dinaline]	nM	–
Oxamflatin	uM	–
CCN(CC)Cc1ccc2cc(COC(=O)Nc3ccc(C(=O)NO)cc3)ccc2c1 [ITF2357]	nM	–
C=CCSSCC=C [Diallyl disulfide (DADS), Diallyl disulfide]	uM	–
C[S+]([O-])CCCCN=C=S (centres unmarked) [Sulforaphane (SFN), Sulforaphane]	uM	–
CC(=O)N[C@@H](CSC(=S)NCCCC[S+](C)[O-])C(=O)O (some centres unmarked) [SFN-N-acetylcysteine (SFN-NAC), SFN-N-acetylcysteine]	uM	–
O=C(/C=C/c1cccc(S(=O)(=O)Nc2ccccc2)c1)NO [PDX-101]	uM	–
CCCC(=O)OCOC(=O)C(C)(C)C [AN-9, Pivaloyloxymethyl butyrate, Pivaloyloxymethyl butyrate]	uM	–
Nc1ccccc1NC(=O)c1ccc(CNC(=O)OCc2cccnc2)cc1 [MS-275 (same as MS-27-275)]	nM	–
Suberoylanilide hydroxamic acid	uM	–
Nc1ccccc1NC(=O)c1ccc(CNc2nccc(-c3cccnc3)n2)cc1 [MGCD0103]	nM	–
CN(C)c1ccc(C(=O)NCc2ccc(/C=C/C(=O)NO)cc2)cc1 [SK-7041]	nM	–
O=C(CCCCCCCC(=O)NO)NO [ABHA (azeleic bishydroxamic acid), azeleic bishydroxamic acid]	uM	–
CCCC(CCC)C(=O)O [VPA, Valproic acid]	mM	Efficiency ([1]; 3 iPS factors (OSK) + VPA): 0.002%; Efficiency ([1]; 4 iPS factors (OSKM) + VPA): 0.006%; Birth defects (neural tube closure defects and other malformations) [2]: may induce birth defects; DNMT1 gene expression (BJFs (ATCC); BJFs, 500 nM VPA, 7 days, vs control (MC) cells, P<0.005): significantly up regulated; HDAC1 gene expression (BJFs (ATCC); BJFs, 500 nM VPA, 7 days, vs control (MC) cells, P<0.01): significantly up regulated; SIRT4 gene expression (BJFs (ATCC); BJFs, 500 nM VPA, 7 days, vs control (MC) cells, P<0.05): significantly up regulated; Compensatory expression of HDACs (HDAC9, HDAC5, HDAC11, SIRT4, SIRT5) (BJFs (ATCC); treatment of cells with VPA (FIG. 4C)): induced; ES cell-like colony formation [3, 5]: Colonies displaying characteristics of embryonic stem cells or reprogrammed cells were observed; ES cell-like colony formation [3, 6]: Colonies displaying characteristics of embryonic stem cells or reprogrammed cells were observed; Efficiency (Human fibroblasts; 2 iPS factors (OS) + VPA): 0.001%; Efficiency (Human fibroblasts; 3 iPS factors (OSK) + VPA): 1%; Teratogenicity (mouse embryos): teratogenic in the majority of mouse embryos
CCCC(=O)[O-].[Na+] [Butyrate/Sodium Butyrate, Sodium Butyrate]	mM	–
O=C(/C=C/c1ccc(CN(CCO)CCc2c[nH]c3ccccc23)cc1)NO [NVP-LAQ824]	nM	–
CC(/C=C/C(=O)NO)=C\[C@@H](C)C(=O)c1ccc(N(C)C)cc1 [TSA, Trichostatin A]	nM	Sox-2 and Oct4 expression in ES cell-like colonies [4]: showed Sox-2 and Oct4 expression; ES cell-like colony formation [3, 5]: multiple colonies displaying morphologies consistent with embryonic stem cells or reprogrammed cells were observed; ES cell-like colony formation [3, 6]: ES cell-like colony formation was observed; Increase in colony formation vs no pretreatment ([3]; 5 days pre-treatment, then OSKM lentivirus): two-fold; Number of ES cell-like colonies ([3]; First Experiment): 24; Number of ES cell-like colonies ([3]; Second Experiment): 21; Somatic cell reprogramming efficiency (number of formed colonies) ([3]; pre-treatment prior to four-factor transfection, TSA 1 μM): increased
S=C=NCCCCc1ccccc1 [Phenylbutyl isothiocyanate]	uM	–
O=C(CCCCCCC(=O)NO)NO [SBHA (suberic bishydroxamate), suberic bishydroxamate]	uM	–
C[S+]([O-])CCCCNC(=S)SC[C@H](N)C(=O)O (some centres unmarked) [SFN-cysteine (SFN-Cys), SFN-cysteine]	uM	–
O=C(CCCCCN1C(=O)c2cccc3cccc(c23)C1=O)NO [Scriptaid]	–	ES cell-like colony formation [3, 5]: ES cell-like colony formation was observed; ES cell-like colony formation [3, 6]: multiple colonies displaying morphologies consistent with embryonic stem cells or reprogrammed cells were observed
O=C(/C=C/c1ccc(CNC(=O)c2ccc(N3CCCC3)cc2)cc1)NO [SK-7068]	nM	–
O=C(/C=C/c1cccc(C(=O)NO)c1)NO [m-Carboxycinnamic acid bishydroxamic acid]	uM	–
O=C(CCCCCCC(=O)Nc1cccnc1)NO [Pyroxamide]	uM	–
